Source: the NIST ThermoML archive (doi:10.1016/j.jct.2014.12.011)
± gives the expanded uncertainty stated by the source.

Assay: mn = molality of the nth substance listed, in mol/kg
Settings: 100 kPa, Liquid, Alternating current cell with electrodes

CCCCCCCCCC(=O)[O-].[Cs+] [cesium decanoate] + O
electrical conductivity [S/m]
Settings | 278.15 K | 288.15 K | 298.15 K | 308.15 K | 318.15 K | 328.15 K
m1 = 0.00805 | 0.0479 ± 0.0007 | 0.0614 ± 0.0009 | 0.0757 ± 0.0012 | 0.091 ± 0.0014 | 0.107 ± 0.0016 | 0.123 ± 0.0019
m1 = 0.01759 | 0.101 ± 0.0011 | 0.13 ± 0.0015 | 0.161 ± 0.0018 | 0.193 ± 0.0022 | 0.227 ± 0.0026 | 0.261 ± 0.003
m1 = 0.0274 | 0.151 ± 0.0016 | 0.197 ± 0.0021 | 0.241 ± 0.0025 | 0.29 ± 0.0031 | 0.342 ± 0.0036 | 0.396 ± 0.0042
m1 = 0.03769 | 0.207 ± 0.0021 | 0.261 ± 0.0027 | 0.323 ± 0.0033 | 0.39 ± 0.004 | 0.46 ± 0.0047 | 0.533 ± 0.0055
m1 = 0.04818 | 0.261 ± 0.0027 | 0.327 ± 0.0033 | 0.404 ± 0.0041 | 0.487 ± 0.005 | 0.575 ± 0.0059 | 0.667 ± 0.0068
m1 = 0.06109 | 0.316 ± 0.0032 | 0.405 ± 0.0041 | 0.502 ± 0.0051 | 0.604 ± 0.0061 | 0.713 ± 0.0072 | 0.824 ± 0.0083
m1 = 0.0725 | 0.3714 ± 0.0037 | 0.476 ± 0.0048 | 0.588 ± 0.0059 | 0.707 ± 0.0071 | 0.829 ± 0.0084 | 0.958 ± 0.0097
m1 = 0.08819 | 0.4405 ± 0.0044 | 0.564 ± 0.0057 | 0.696 ± 0.007 | 0.835 ± 0.0084 | 0.988 ± 0.0099 | 1.147 ± 0.011
m1 = 0.1027 | 0.5001 ± 0.005 | 0.639 ± 0.0064 | 0.7914 ± 0.0079 | 0.954 ± 0.0096 | 1.121 ± 0.011 | 1.3 ± 0.013
m1 = 0.1172 | 0.554 ± 0.0056 | 0.715 ± 0.0072 | 0.883 ± 0.0089 | 1.06 ± 0.011 | 1.24 ± 0.013 | 1.44 ± 0.015
m1 = 0.1325 | 0.6113 ± 0.0061 | 0.79 ± 0.0079 | 0.965 ± 0.0097 | 1.16 ± 0.012 | 1.36 ± 0.014 | 1.58 ± 0.016
m1 = 0.153 | 0.697 ± 0.007 | 0.875 ± 0.0088 | 1.07 ± 0.011 | 1.28 ± 0.013 | 1.514 ± 0.015 | 1.76 ± 0.018
m1 = 0.1705 | 0.7509 ± 0.0075 | 0.944 ± 0.0095 | 1.16 ± 0.012 | 1.39 ± 0.014 | 1.642 ± 0.016 | 1.914 ± 0.019
m1 = 0.1873 | 0.799 ± 0.008 | 1.009 ± 0.01 | 1.241 ± 0.012 | 1.49 ± 0.015 | 1.77 ± 0.018 | 2.06 ± 0.021
m1 = 0.2051 | 0.8512 ± 0.0085 | 1.08 ± 0.011 | 1.33 ± 0.013 | 1.604 ± 0.016 | 1.9 ± 0.019 | 2.211 ± 0.022
m1 = 0.2256 | 0.914 ± 0.0092 | 1.16 ± 0.012 | 1.438 ± 0.014 | 1.735 ± 0.017 | 2.05 ± 0.021 | 2.39 ± 0.024
m1 = 0.2463 | 0.976 ± 0.0098 | 1.25 ± 0.013 | 1.542 ± 0.015 | 1.86 ± 0.019 | 2.207 ± 0.022 | 2.57 ± 0.026

CCCCCCCCCC(=O)[O-].[K+] [potassium decanoate] + O
Settings | electrical conductivity [S/m]
288.15 K, m1 = 0.00932 | 0.0666 ± 0.001
288.15 K, m1 = 0.01855 | 0.13 ± 0.0015
288.15 K, m1 = 0.02771 | 0.19 ± 0.002
288.15 K, m1 = 0.03678 | 0.247 ± 0.0026
288.15 K, m1 = 0.04578 | 0.303 ± 0.0031
288.15 K, m1 = 0.0547 | 0.358 ± 0.0036
288.15 K, m1 = 0.06355 | 0.411 ± 0.0042
288.15 K, m1 = 0.07232 | 0.462 ± 0.0047
288.15 K, m1 = 0.08102 | 0.511 ± 0.0052
288.15 K, m1 = 0.08964 | 0.5603 ± 0.0056
288.15 K, m1 = 0.09819 | 0.608 ± 0.0061
288.15 K, m1 = 0.1067 | 0.654 ± 0.0066
288.15 K, m1 = 0.1151 | 0.698 ± 0.007
288.15 K, m1 = 0.1234 | 0.738 ± 0.0074
288.15 K, m1 = 0.1317 | 0.771 ± 0.0077
288.15 K, m1 = 0.1399 | 0.8021 ± 0.008
288.15 K, m1 = 0.148 | 0.8314 ± 0.0083
288.15 K, m1 = 0.1561 | 0.86 ± 0.0086
288.15 K, m1 = 0.1641 | 0.888 ± 0.0089
288.15 K, m1 = 0.1721 | 0.915 ± 0.0092
288.15 K, m1 = 0.1799 | 0.943 ± 0.0094
288.15 K, m1 = 0.1878 | 0.9704 ± 0.0097
298.15 K, m1 = 0.00998 | 0.0875 ± 0.0012
298.15 K, m1 = 0.01987 | 0.172 ± 0.0019
298.15 K, m1 = 0.02967 | 0.251 ± 0.0026
298.15 K, m1 = 0.03939 | 0.328 ± 0.0034
298.15 K, m1 = 0.04902 | 0.402 ± 0.0041
298.15 K, m1 = 0.05856 | 0.474 ± 0.0048
298.15 K, m1 = 0.06803 | 0.545 ± 0.0055
298.15 K, m1 = 0.07741 | 0.613 ± 0.0062
298.15 K, m1 = 0.08671 | 0.679 ± 0.0068
298.15 K, m1 = 0.09593 | 0.743 ± 0.0075
298.15 K, m1 = 0.1051 | 0.802 ± 0.0081
298.15 K, m1 = 0.1141 | 0.858 ± 0.0086
298.15 K, m1 = 0.1231 | 0.905 ± 0.0091
298.15 K, m1 = 0.1321 | 0.949 ± 0.0095
298.15 K, m1 = 0.1409 | 0.99 ± 0.0099
298.15 K, m1 = 0.1497 | 1.03 ± 0.01
298.15 K, m1 = 0.1583 | 1.07 ± 0.011
298.15 K, m1 = 0.167 | 1.108 ± 0.011
298.15 K, m1 = 0.1755 | 1.147 ± 0.011
298.15 K, m1 = 0.184 | 1.19 ± 0.012
298.15 K, m1 = 0.1924 | 1.224 ± 0.012
298.15 K, m1 = 0.2008 | 1.26 ± 0.013
298.15 K, m1 = 0.209 | 1.301 ± 0.013
308.15 K, m1 = 0.00952 | 0.101 ± 0.0014
308.15 K, m1 = 0.01895 | 0.198 ± 0.0022
308.15 K, m1 = 0.0283 | 0.29 ± 0.0031
308.15 K, m1 = 0.03758 | 0.379 ± 0.0039
308.15 K, m1 = 0.04677 | 0.465 ± 0.0048
308.15 K, m1 = 0.05588 | 0.549 ± 0.0056
308.15 K, m1 = 0.06492 | 0.631 ± 0.0064
308.15 K, m1 = 0.07388 | 0.71 ± 0.0072
308.15 K, m1 = 0.08277 | 0.785 ± 0.0079
308.15 K, m1 = 0.09158 | 0.8601 ± 0.0086
308.15 K, m1 = 0.1003 | 0.931 ± 0.0093
308.15 K, m1 = 0.109 | 0.996 ± 0.01
308.15 K, m1 = 0.1176 | 1.05 ± 0.011
308.15 K, m1 = 0.1261 | 1.104 ± 0.011
308.15 K, m1 = 0.1346 | 1.15 ± 0.012
308.15 K, m1 = 0.1429 | 1.201 ± 0.012
308.15 K, m1 = 0.1512 | 1.25 ± 0.013
308.15 K, m1 = 0.1595 | 1.29 ± 0.013
308.15 K, m1 = 0.1677 | 1.342 ± 0.013
308.15 K, m1 = 0.1758 | 1.39 ± 0.014
308.15 K, m1 = 0.1838 | 1.434 ± 0.014
308.15 K, m1 = 0.1918 | 1.48 ± 0.015
308.15 K, m1 = 0.1997 | 1.525 ± 0.015
318.15 K, m1 = 0.0099 | 0.125 ± 0.0017
318.15 K, m1 = 0.01971 | 0.243 ± 0.0027
318.15 K, m1 = 0.02944 | 0.356 ± 0.0037
318.15 K, m1 = 0.03908 | 0.465 ± 0.0048
318.15 K, m1 = 0.04864 | 0.571 ± 0.0058
318.15 K, m1 = 0.05811 | 0.673 ± 0.0068
318.15 K, m1 = 0.0675 | 0.771 ± 0.0078
318.15 K, m1 = 0.07682 | 0.867 ± 0.0087
318.15 K, m1 = 0.08605 | 0.962 ± 0.0097
318.15 K, m1 = 0.0952 | 1.05 ± 0.011
318.15 K, m1 = 0.1043 | 1.135 ± 0.011
318.15 K, m1 = 0.1133 | 1.21 ± 0.012
318.15 K, m1 = 0.1222 | 1.28 ± 0.013
318.15 K, m1 = 0.131 | 1.342 ± 0.013
318.15 K, m1 = 0.1398 | 1.404 ± 0.014
318.15 K, m1 = 0.1485 | 1.46 ± 0.015
318.15 K, m1 = 0.1571 | 1.524 ± 0.015
318.15 K, m1 = 0.1657 | 1.58 ± 0.016
318.15 K, m1 = 0.1742 | 1.641 ± 0.016
318.15 K, m1 = 0.1826 | 1.7 ± 0.017
318.15 K, m1 = 0.1909 | 1.76 ± 0.018
318.15 K, m1 = 0.1992 | 1.815 ± 0.018
318.15 K, m1 = 0.2074 | 1.87 ± 0.019
328.15 K, m1 = 0.00972 | 0.143 ± 0.002
328.15 K, m1 = 0.01937 | 0.279 ± 0.0031
328.15 K, m1 = 0.02892 | 0.408 ± 0.0043
328.15 K, m1 = 0.0384 | 0.533 ± 0.0055
328.15 K, m1 = 0.0478 | 0.654 ± 0.0067
328.15 K, m1 = 0.05712 | 0.769 ± 0.0078
328.15 K, m1 = 0.06636 | 0.883 ± 0.0089
328.15 K, m1 = 0.07552 | 0.994 ± 0.01
328.15 K, m1 = 0.08461 | 1.103 ± 0.011
328.15 K, m1 = 0.09362 | 1.207 ± 0.012
328.15 K, m1 = 0.1026 | 1.305 ± 0.013
328.15 K, m1 = 0.1114 | 1.4 ± 0.014
328.15 K, m1 = 0.1202 | 1.48 ± 0.015
328.15 K, m1 = 0.1289 | 1.55 ± 0.016
328.15 K, m1 = 0.1376 | 1.627 ± 0.016
328.15 K, m1 = 0.1462 | 1.7 ± 0.017
328.15 K, m1 = 0.1547 | 1.77 ± 0.018
328.15 K, m1 = 0.1631 | 1.836 ± 0.018
328.15 K, m1 = 0.1715 | 1.904 ± 0.019
328.15 K, m1 = 0.1798 | 1.97 ± 0.02
328.15 K, m1 = 0.188 | 2.038 ± 0.02
328.15 K, m1 = 0.1962 | 2.106 ± 0.021
328.15 K, m1 = 0.2043 | 2.17 ± 0.022
